Columns and labels:
ATP1A1 = ATP1A1 (Homo sapiens, UniProt P05023); test: Western blot of ATP1A1 in Huh-7 cells; type: cell-based; design: endogenous in cells
Source text: (§1) 2. The anti-proliferation of compound 5 on Huh-7 cells
(§2) We tested another hepatoma cell line (Huh-7) to validate effect of compound 5. L02 (normal hepatocytes), HepG2 and Hub-7 cells were used to discuss the effect of 5. […]
(§3) of 5 on Huh-7 cell was (24.49±[…]) μM (Table S1). The morphology and apoptosis of the cells by reversed microscope and flow cytometry, respectively.
(§4) Second, the expression and phosphorylation of ATP1A1 were detected by Western blot analysis in L02, HepG2 and Huh-7 cells. Compared with L02 group, the expression of ATP1A1 was higher in HepG2 and Huh-7 cells, but there was no significant difference in the phosphorylation of ATP1A1 (Figure […]
(§5) At last, the effect of 5 on the expression and the phosphorylation of ATP1A1 in Huh-7 cells was […]
(§6) the phosphorylation of ATP1A1. The result was consistent with that observed in HepG2 cells (Figure […]
(§7) Table S1 Cell viability of Huh-7 cell treated by compound 5
(§8) Figure S2 Compound 5 inhibited the proliferation and the level of ATP1A1 protein in Huh-7 cells L5, low concentration of 5 (12.5 μmol-1 ); H5, high concentration of 5 (25 μmol-1). […] (B) Image of cell apoptosis in Huh-7 cells was detected by flow cytometry. The cells were double stained with Annexin V and PI. […] Data are expressed as the mean ± standard deviation (n=3). *p<0.05, **p<0.01, ***p<0.001 vs. the control group. […]

HepG2 cells = test: Scratch test and colony formation assay; type: cell-based; conditions: scratch 36 h, colony 7 days, 12.5 and 25 μmol
Experimental: HepG2 cells (8 × 10^4 cells/well) were incubated in 24-well plates for 24 h. Cells were treated with a compound for 36 h after making a uniform straight from scratch with a 200 μL pipette tip. Cell motility was detected by measuring the wound closure distance after 36 h. Images were recorded using an inverted microscope (Olympus CK40, Shinjuku, Japan). HepG2 cells (600 cells/well) were incubated in 6-well plates and treated with the compound. One week later, visible colonies had formed. Then, the colonies were fixed with 4% polymethanol paraformaldehyde and stained with crystal violet (0.005%). The number of colonies was calculated by using a microscope.

[1] = system: Bax, cleaved caspase 3, cleaved caspase 8, Bcl-2, LC3-B, p62, AKT/mTOR in HepG2 cells; test: Western blot of apoptosis- and autophagy-related proteins in HepG2 cells; type: cell-based; conditions: HepG2, 25 μmol∙L−1, 24 h
Experimental: Protein samples were prepared using a RIPA lysis buffer. The concentration of the protein was analyzed using a nucleic acid and protein microanalyzer (Molecular Devices, San Jose, CA, USA). SDS–PAGE was performed to separate the proteins, which were then electrotransferred onto a PVDF membrane. The membrane was incubated with antibodies at 4 °C overnight. Next, the membrane was washed and incubated with an HRP-conjugated secondary antibody (Beyotime, BeiJing, China). Finally, signals were detected by the ECL method (Beyotime, BeiJing, China) and analyzed using ImageJ software.

[2] = system: NO production of LPS-stimulated RAW264.7 cells; test: Nitric oxide production in LPS-stimulated RAW264.7 cells (Griess); type: cell-based
Experimental: RAW264.7 cells (8 × 10^4 cells/well) were incubated in 96T wells with DMEM for 24 h and then treated with compounds and LPS (1 μg/mL) for 24 h; this included the control group and LPS group. Then, the cell supernatant was collected for nitric oxide production assay. Next, 100 uL/well PBS was added to 96T wells, then 0.5% MTT (Sigma, Saint Louis, MO, USA) was added to 20 μL/well for 3.5 h. DMSO (150 μL/well) was added to dissolve the purple formazan. Cells were agitated for 15 min at room temperature, and the absorbance at 490 nm was recorded by SpetraMax M2 (Molecular Devices, San Jose, CA, USA). The NO inhibition rate (%) = (ODLPS group − ODcompound group)/(ODLPS group-ODcontrol group) × 100%. The IC50 value refers to the inhibitory of nitric oxide production of LPS-stimulated RAW264.7 cells. Then, 70 uL of each cell supernatant sample was added into a new 96T plate, and Griess A and Griess B were added separately. Then, the absorbance value at 540 nm was detected and then brought into the standard curve to assay the concentration of NO. The cell survival rate (%) = (ODcompound group − ODblank group)/(ODcontrol group − ODblank group) × 100%. The half concentration of the cell death (CC50) value refers to the concentration of compound 5 when 50% of RAW264.7 cells die. The iNOS inhibitor ([…], L-NMMA) was selected as the positive control. The levels of cytokines (IL-1β, IFN-γ, IL-10, TNF-α, and IL-6) in the cell supernatant were determined using an ELISA kit (Novus Biologicals, Shanghai, China, Lot: 834472, 770118, 772051, 486956, 602865). When the process was conducted according to the manufacturer’s instructions, the absorbance was read at 450 nm/570 nm in a SpectraMax 340PC microplate spectrophotometer (Molecular Devices, San Jose, CA, USA).

Na+-K+-ATPase = biological target: T1, Na+-K+-ATPase (Homo sapiens, UniProt P05023); test: Na+-K+-ATPase enzyme activity detection kit; type: biochemical; conditions: HepG2 cells
T1 construct: endogenous in cells; host or cells: HepG2 (sonicated lysate supernatant)
Experimental: HepG2 cells were collected in centrifuge tubes, and every 5 million cells were added to 1 mL reagent to sonicate the cells (power 20%, ultrasound 3S, interval 10 s, repeat 30 times). Then, the samples were centrifuged at 8000 rpm/min for 10 min at 4 °C. The supernatant was then collected and placed on ice for testing. The operation was performed according to the instructions of the Na^+-K^+-ATPase enzyme activity detection kit (Solarbio, Beijing, China).

Huh-7 cells = test: Apoptosis of Huh-7 cells by flow cytometry (Annexin V/PI); type: cell-based
Source text: as §1, §2, §3, §4, §5, §6, §7, §8

## C[C@H](O)[C@]1(O)CC[C@@]2(O)[C@]1(C)[C@H](OC(=O)/C=C/c1ccccc1)C[C@@H]1[C@@]3(C)CC[C@H](O[C@H]4C[C@H](O)[C@H](O)[C@@H](C)O4)CC3=CC[C@]12O [Compound 5, Cynsaccatol L]
ATP1A1
  level of ATP1A1 in Huh-7: reduced
HepG2 cells
  cell migration and proliferation (scratch and colony formation): greatly inhibited
[1]
  Bax, cleaved caspase 3 and cleaved caspase 8 protein expression: increased
  Bcl-2 protein expression: decreased
  expression of LC3-B and p62: upregulating
  phosphorylation of AKT and mTOR: inhibited
[2]; LPS-stimulated RAW264.7 cells
  inhibitory activity on NO production relative to the positive control drug (L-NMMA): 1000 times
[2]; Mus musculus, LPS (1 μg/mL)-stimulated RAW264.7 cells, 24 h, read-out: RAW264.7 IC50 (inhibition of nitric oxide production)
  IC50: 20 ± 20 nM
Na+-K+-ATPase
  activity of NAK (Na+-K+-ATPase): inhibited
Huh-7 cells
  apoptosis of Huh-7 cells: induce apoptosis of Huh-7 cells

Source: PMC10058894, “Bioactive C21 Steroidal Glycosides from Euphorbia kansui Promoted HepG2 Cell Apoptosis via the Degradation of ATP1A1 and Inhibited Macrophage Polarization under Co-Cultivation” (Molecules, 2023)
